# In paper PMC5954004, “19th European Symposium on Radiopharmacy and Radiopharmaceuticals (ESRR’18)” (EJNMMI Radiopharmacy and Chemistry, 2018):
# Read-outs that look alike come from different tables or passages of the source.
# How the values were obtained:
# mGluR1 = molecular target: T1, mGluR1 (Mus musculus, UniProt P97772); assay: [11C]ITDM microPET in mouse brain; assay type: in vivo
# T1 construct: PET probe for imaging the kinetics of mGluR1 in mouse brain; from tissue; host or cells: brain of living WT Q175DN mice
# Procedure: Methods: We validated [^11C]ITDM as a PET probe for imaging the kinetics of mGluR1 in mouse brain. [^11C]ITDM was prepared by modification of a previously described method^1 in a module (Comecer Netherlands) adapted for automated production. In a cooled solution containing the arylstannane precursor (1.9mg), K2CO3 (2.1mg), CuCl2 (1.5mg), Pd2(dba)3 (1.3mg) and P(o-tol)3 (1.7mg) in DMF purged with N2, [^11C]MeI was bubbled, followed by reaction at 65°C for 5min. The mixture was purified by reverse phase semi-preparative HPLC (tR=8.5min), using MeCN:H2O:Et3N (6:4:0.01, V/V/V) as mobile phase (2.7mL/min) followed by sterile formulation into ethanolic saline containing 0.5% ascorbic acid, using a C18 Sep-Pak cartridge. For in vivo evaluation, WT Q175DN mice (n = 9; 11 months old) were intravenously (i.v.) injected with [^11C]ITDM (5.69±2.4MBq; injected mass=0.87±0.33μg/kg) and dynamically scanned for 90min (Siemens Inveon μPET/CT). To validate target engagement, blocking and displacement studies with mGluR1 antagonist YM-202074 (20mg/kg; i.v.; 2min before and 30min after tracer injection, respectively) were performed. Total volume of distribution (VT) (from 2TCM) was calculated noninvasively using an image-derived input function (IDIF) in several brain regions.
# [1] = after 10 min, BALB/c mice in vivo
# Procedure: (§1) Methods: The new MG analogue DOTA-MGS5 was designed based on a combination of the substitutions applied in peptide derivatives previously developed by our group (1). The in vitro and in vivo characterisation after radiolabelling with In-111 and Lu-177 included stability analyses of the radioligands incubated in rat tissue homogenates and after injection into BALB/c mice. Receptor interaction in terms of receptor affinity and cell uptake was analysed using A431 human epidermoid carcinoma cells transfected with human CCK2R (A431-CCK2R) and mock-transfected cells (A431-mock). The targeting potential was evaluated by small animal dual modality single photon emission computed tomography (NanoSPECT/CT) as well as ex vivo biodistribution studies in tumour bearing BALB/c nude mice up to 4 h after injection.
# in vivo = settings: BALB/c nude, mouse, total radioactivity
# Procedure: as §1
# GABAB receptors = molecular target: T2, GABAB receptors (Mus musculus, UniProt Q9WV18); assay type: in vivo, mice
# T2 construct: from tissue; host or cells: brain of CD-1 male mice (in vivo / ex vivo)
# Procedure: Methods: New GABAB agonists, fluoropyridylmethoxy analogues of baclofen, were synthesized. The in vitro potency of these new compounds was determined commercially. […] The regional brain distribution of the radiolabeled [^18F]1 was studied in CD-1 male mice.
# [2] = 68Ga-labelled conjugates
# Procedure: (§3) Tz functionalization was performed by reaction with NHS-PEG5-Tz with FSC (resulting in the trimer FSC-(PEG5-Tz)3), MAFC (resulting in the dimer MAFC-(PEG5-Tz)2) and DAFC (resulting in the monomer DAFC-(PEG5-Tz), starting from its ferric complex with final iron removal by EDTA, HPLC purification and characterization by MS. ^68Ga-labelling was performed in acetate buffer (pH 4.5) at high s.a., resulting complexes were characterized by HPLC, protein binding, log P and stability was assessed. Rituximab was functionalized with NHS-TCO according to published procedures (Rtx-TCO). Binding of Tz-conjugates to TCO was assessed on Rtx-TCO immobilized 96well plates as well as after binding of Rtx-TCO vs Rtx to Raji cells expressing CD20 followed by incubation with 68Ga-Tz-conjugate. Biodistribution was studied in normal balb-c mice.
# [3] = tested on: Raji cells expressing CD20; assay: binding of 68Ga-Tz-conjugate after binding of Rtx-TCO to Raji cells; assay type: cell-based
# [4] = 68Ga-labelled conjugates; remark: listed apart in the source
# Procedure: as §3
# [5] = 1h p.i., normal balb-c mice
# Procedure: as §3
# PANC-1 cells = assay: clonogenic survival assay, PANC-1; assay type: cell-based
# Procedure: (§2) Methods: Flow cytometry: EGFR density was measured on AsPC-1, PANC-1, MiaPACA-2, and Capan-1 cell lines. Cells were incubated with panitumumab for 60 min, then with Alexa Fluor 647 anti-human IgG immunoconjugates for 30 min at 4°C, then run on a flow cytometer. Clonogenic survival assays: Cells were treated with γ-radiation (0-8Gy) or ^177Lu-RIT (0-3MBq/72nM) then seeded in into 6-well plates and allowed to grow at 37°C, 5% CO2, for 14 days. Then colonies were fixed/stained and counted. Subcellular fractionation: Cells were treated with ^177Lu-RIT (1MBq/72nM) for 1, 3, 4, and 24 hours. Radioactivity associated with cell surface, cytoplasm, and nucleus was separated then measured in a γ-counter.
# Capan-1 cells = assay: clonogenic survival assay, Capan-1; assay type: cell-based
# Procedure: as §2
# MIAPaca-2 cells = assay: clonogenic survival assay, MIAPaca-2; assay type: cell-based
# Procedure: as §2
# AsPC-1 cells = assay: clonogenic survival assay, AsPC-1; assay type: cell-based
# Procedure: as §2
# [6] = molecular target: gastrin-releasing peptide receptor (GRPr) (human (endogenous in PC-3, T47D, MDA-MB-231)) (UniProt P30550)
# A431-CCK2R cells = assay: internalisation into A431-CCK2R cells; assay type: cell-based, human
# [7] = 37°C, 24h incubation
# Procedure: Methods: 177Lu-DOTATATE (Lutathera®) was diluted to 1/5th in saline, 5% Glucose, Bicarbonate 8.4% solution, Ringer-Lactate, octreotide solution, octreotide LAR or incubated at 37°C in plasma or plasma enriched with 10% de octreotide. Radiochemical purity (RPC) was determined by ITLC-SG in 0.1mol/L sodium citrate pH=3. […] RPC was also determined using C18 Sep-Pack-Plus cartridge (Waters, USA). The free radionuclide was eluted with 5mL of 0.1mol/L acetate buffer pH=3 and the labelled peptide with 5mL of methanol, and hydroxylated Lu-177 remained inside the cartridge. Mixtures were then analyzed immediately, 30min and 24h after dilution. […] Binary comparisons to the undiluted product were made by a Mann-and-Whitney U test and stability over time checked by a 1-way ANOVA (p < 5%).
# [8] = plutonium decorporation in rats; assay type: in vivo; settings: delayed administration, of the levels in untreated control rats
# Procedure: Methods: Unilamellar liposomes (DSPC/Cholesterol/DSPE 69:30:1) were used to encapsulate DTPA (25mM). For decorporation experiments, rats were first contaminated by intravenous administration of the soluble citrate form of ^238Pu (4 to 10.3 kBq), before injection of DTPA, marketed free form or encapsulated in liposomes (2.25 at 6.74 μmol/kg). Treatment schedules started at one hour (prompt treatment) or at seven days (delayed treatment) after contamination and were given as a single injection or repeated injections. A prophylactic single treatment was also tested given at three days before contamination. Organs of interest (liver, bone and spleen mainly) and excreta were collected at different times for measurement of Pu alpha activity.
# [9] = 2TCM, image-derived input function, WT Q175DN mice n = 9
# [10] = plasma enriched with octreotide
# T1 sequence (P97772 21-1199): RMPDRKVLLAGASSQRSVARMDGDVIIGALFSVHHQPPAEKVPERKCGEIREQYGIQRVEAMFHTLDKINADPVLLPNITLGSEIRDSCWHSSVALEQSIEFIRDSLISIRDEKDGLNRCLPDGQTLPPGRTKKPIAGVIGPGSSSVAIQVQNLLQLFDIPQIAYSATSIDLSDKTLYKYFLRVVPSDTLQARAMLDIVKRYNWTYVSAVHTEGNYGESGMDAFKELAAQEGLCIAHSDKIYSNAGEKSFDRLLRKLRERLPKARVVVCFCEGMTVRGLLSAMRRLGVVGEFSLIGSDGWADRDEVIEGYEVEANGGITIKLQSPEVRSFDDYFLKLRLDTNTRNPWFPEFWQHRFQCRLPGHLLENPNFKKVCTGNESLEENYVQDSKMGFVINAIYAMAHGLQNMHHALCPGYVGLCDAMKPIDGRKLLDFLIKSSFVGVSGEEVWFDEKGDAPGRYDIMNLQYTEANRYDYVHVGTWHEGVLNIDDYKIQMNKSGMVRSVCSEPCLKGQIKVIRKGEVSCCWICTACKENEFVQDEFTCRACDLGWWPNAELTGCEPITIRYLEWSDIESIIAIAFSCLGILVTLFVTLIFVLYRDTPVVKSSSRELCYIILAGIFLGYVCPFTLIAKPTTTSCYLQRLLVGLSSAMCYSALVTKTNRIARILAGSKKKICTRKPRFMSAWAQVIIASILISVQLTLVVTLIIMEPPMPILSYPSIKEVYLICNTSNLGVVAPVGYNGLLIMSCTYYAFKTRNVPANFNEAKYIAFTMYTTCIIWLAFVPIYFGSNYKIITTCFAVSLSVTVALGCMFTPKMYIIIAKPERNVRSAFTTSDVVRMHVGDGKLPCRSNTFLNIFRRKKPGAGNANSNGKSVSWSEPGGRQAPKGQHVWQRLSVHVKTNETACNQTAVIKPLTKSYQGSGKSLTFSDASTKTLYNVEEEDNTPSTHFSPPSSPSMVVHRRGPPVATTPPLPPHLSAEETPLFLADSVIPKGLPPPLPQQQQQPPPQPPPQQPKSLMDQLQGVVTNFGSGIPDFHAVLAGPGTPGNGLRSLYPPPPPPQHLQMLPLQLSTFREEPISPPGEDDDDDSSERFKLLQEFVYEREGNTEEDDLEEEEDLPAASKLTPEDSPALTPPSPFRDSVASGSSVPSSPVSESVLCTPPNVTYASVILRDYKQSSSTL
# gastrin-releasing peptide receptor (GRPr) (human (endogenous in PC-3, T47D, MDA-MB-231)), sequence (P30550 whole entry, stated change not applied): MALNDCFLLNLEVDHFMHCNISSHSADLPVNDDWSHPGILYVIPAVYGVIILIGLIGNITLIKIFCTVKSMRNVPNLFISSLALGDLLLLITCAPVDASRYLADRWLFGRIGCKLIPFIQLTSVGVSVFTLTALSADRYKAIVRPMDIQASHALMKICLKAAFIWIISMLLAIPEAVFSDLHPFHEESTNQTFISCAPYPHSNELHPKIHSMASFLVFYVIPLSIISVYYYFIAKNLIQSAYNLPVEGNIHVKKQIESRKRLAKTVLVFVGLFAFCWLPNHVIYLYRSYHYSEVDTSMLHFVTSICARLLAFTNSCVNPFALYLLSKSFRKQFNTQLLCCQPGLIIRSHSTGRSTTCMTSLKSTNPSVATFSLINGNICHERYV
# T2 sequence (Q9WV18 20-960): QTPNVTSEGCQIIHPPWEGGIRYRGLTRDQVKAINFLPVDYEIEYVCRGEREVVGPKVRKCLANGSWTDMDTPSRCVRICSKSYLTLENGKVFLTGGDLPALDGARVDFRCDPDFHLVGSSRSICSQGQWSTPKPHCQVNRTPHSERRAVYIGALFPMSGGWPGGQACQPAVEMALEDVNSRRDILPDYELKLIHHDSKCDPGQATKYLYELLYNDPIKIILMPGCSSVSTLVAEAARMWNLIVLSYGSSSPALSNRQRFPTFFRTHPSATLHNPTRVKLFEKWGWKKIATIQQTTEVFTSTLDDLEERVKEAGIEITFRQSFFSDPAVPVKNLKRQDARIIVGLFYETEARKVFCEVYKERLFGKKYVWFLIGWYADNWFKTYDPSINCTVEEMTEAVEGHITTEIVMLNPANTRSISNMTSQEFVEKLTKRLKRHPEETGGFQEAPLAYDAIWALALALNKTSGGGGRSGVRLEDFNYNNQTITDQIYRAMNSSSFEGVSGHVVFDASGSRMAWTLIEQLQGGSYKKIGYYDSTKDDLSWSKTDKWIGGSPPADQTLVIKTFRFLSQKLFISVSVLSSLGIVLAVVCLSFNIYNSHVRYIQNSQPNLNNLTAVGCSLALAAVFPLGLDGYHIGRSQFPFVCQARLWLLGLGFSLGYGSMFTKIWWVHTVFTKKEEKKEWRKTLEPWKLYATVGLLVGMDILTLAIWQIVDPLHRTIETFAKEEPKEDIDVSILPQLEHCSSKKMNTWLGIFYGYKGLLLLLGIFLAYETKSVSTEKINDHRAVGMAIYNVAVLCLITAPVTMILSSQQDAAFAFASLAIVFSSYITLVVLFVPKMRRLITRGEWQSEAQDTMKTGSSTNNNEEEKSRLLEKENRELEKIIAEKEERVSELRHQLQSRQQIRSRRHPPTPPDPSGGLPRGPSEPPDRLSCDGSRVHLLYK
# T2 sequence (Q80T41 41-940 partner): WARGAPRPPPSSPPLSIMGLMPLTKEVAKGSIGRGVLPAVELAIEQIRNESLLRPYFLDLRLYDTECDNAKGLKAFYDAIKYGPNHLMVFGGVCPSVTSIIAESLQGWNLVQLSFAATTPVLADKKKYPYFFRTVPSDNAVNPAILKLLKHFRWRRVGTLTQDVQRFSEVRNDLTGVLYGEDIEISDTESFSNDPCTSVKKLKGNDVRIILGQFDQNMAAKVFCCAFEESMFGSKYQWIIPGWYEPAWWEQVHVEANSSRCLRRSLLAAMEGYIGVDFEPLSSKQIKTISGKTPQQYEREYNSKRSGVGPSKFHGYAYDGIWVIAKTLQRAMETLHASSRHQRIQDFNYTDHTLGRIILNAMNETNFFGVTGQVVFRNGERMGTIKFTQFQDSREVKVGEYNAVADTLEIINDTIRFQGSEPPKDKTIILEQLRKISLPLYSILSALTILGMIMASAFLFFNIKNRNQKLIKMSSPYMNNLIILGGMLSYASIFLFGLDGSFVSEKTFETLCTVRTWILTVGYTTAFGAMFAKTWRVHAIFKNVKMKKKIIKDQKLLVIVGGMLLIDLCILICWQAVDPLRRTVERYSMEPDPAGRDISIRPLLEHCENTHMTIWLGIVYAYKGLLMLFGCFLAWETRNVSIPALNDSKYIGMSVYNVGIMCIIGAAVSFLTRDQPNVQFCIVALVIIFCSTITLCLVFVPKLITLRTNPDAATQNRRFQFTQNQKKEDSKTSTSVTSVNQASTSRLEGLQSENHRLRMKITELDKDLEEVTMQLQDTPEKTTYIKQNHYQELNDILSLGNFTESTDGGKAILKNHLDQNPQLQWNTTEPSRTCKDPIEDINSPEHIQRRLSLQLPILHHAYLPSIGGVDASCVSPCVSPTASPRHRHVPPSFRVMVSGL
compound,measurement,setting,value
COCCN(C)Cc1ccc2c(c1)nc1sc(C(=O)N(C)C3CCCCC3)cn12 [YM-202074],blockade and displacement of [11C]ITDM,"mGluR1; 20mg/kg i.v., 2min before and 30min after tracer injection, all investigated brain regions",significant blockade and displacement
"CCCC[C@@H](C(=O)N[C@@H](CC(=O)O)C(=O)N[C@@H](Cc1cccc2ccccc12)C(N)=O)N(C)C(=O)[C@H](Cc1c[nH]c2ccccc12)NC(=O)CNC(=O)[C@H](Cc1ccc(O)cc1)NC(=O)[C@H](C)NC(=O)[C@@H](CCC(=O)O)NC(=O)CN1CCN(CC(=O)O)CCN(CC(=O)O)CCN(CC(=O)O)CC1 [^177Lu-DOTA-MGS5, metal not drawn]","stability in blood, intact peptide",[1],> 80%
same,tissue to tissue ratio at 4 h,in vivo; A431-CCK2R tumour / kidneys,> 6
same,tissue to tissue ratio at 4 h,in vivo; A431-CCK2R tumour / stomach,> 3
"NC[C@H](CC(=O)O)c1ccc(Cl)c(OCc2ccnc(F)c2)c1 [[^18F]1, (R)-4-amino-3-(4-chloro-3-((2-fluoropyridin-4-yl)methoxy)phenyl) butanoic acid]",mouse brain uptake,GABAB receptors; CD-1 male mice,1 % ID/g tissue
same,inhibition of accumulation in the mouse brain,GABAB receptors; pre-injection of a selective GABAB agonist,35%
"CC(=O)NC1CCCN(O)C(=O)/C=C(/C)CCOC(=O)C(NC(=O)CCOCCOCCOCCOCCOCCC(=O)NCc2ccc(-c3nncnn3)cc2)CCCN(O)C(=O)/C=C(/C)CCOC(=O)C(NC(C)=O)CCCN(O)C(=O)/C=C(/C)CCOC1=O (stereo not drawn) (68Ga complex, metal not drawn) [DAFC-(PEG5Tz)]",protein binding,[2],exceeded 50%
same,binding after binding of Rtx-TCO to CD20 expressing cells,[3],4.01 ± 0.24%
same,log p,[4],below -1
same,blood levels,[5],1 %ID/g
CC(C)Nc1cc(-c2csc(N(C)C(=O)c3ccc([11CH3])cc3)n2)ncn1 [[^11C]ITDM],VT cerebellum,mGluR1; [9],9.1±2.1 mL/cm^3
same,VT thalamus,mGluR1; [9],8.2±2.1 mL/cm^3
^177Lu-RIT: panitumumab modified with a NOTA chelator and radiolabeled with 177Lu,D10 (clonogenic survival reduced to 10%),PANC-1 cells; PANC-1,1.1 MBq
same,RBE,"PANC-1 cells; PANC-1, compared to γ-radiation",1.0
same,D10 after 177Lu-RIT,"PANC-1 cells; PANC-1, microdosimetry",5.7 Gy
same,D10 (clonogenic survival reduced to 10%),Capan-1 cells; Capan-1,1 MBq
same,RBE,"Capan-1 cells; Capan-1, compared to γ-radiation",0.3
same,D10 after 177Lu-RIT,"Capan-1 cells; Capan-1, microdosimetry",8.2 Gy
same,D10 (clonogenic survival reduced to 10%),MIAPaca-2 cells; MIAPaca-2,6.0 MBq
same,RBE,"MIAPaca-2 cells; MIAPaca-2, compared to γ-radiation",0.2
same,D10 after 177Lu-RIT,"MIAPaca-2 cells; MIAPaca-2, microdosimetry",23.3 Gy
same,D10 (clonogenic survival reduced to 10%),AsPC-1 cells; AsPc-1,3.1 MBq
same,RBE,"AsPC-1 cells; AsPc-1, compared to γ-radiation",0.2
same,D10 after 177Lu-RIT,"AsPC-1 cells; AsPc-1, microdosimetry",16.9 Gy
"GRPr antagonist H2N-4-amino-1-carboxymethyl piperidine-[(R)-Phe^6, Sta^13]BN(6-14) linked to the chelator HBED-CC, labelled with 68Ga (peptide)","cell bound, % given radioactivity (MDA-MB-231+ cells, 1 h) (% given radioactivity)",[6],3
same,"cell bound, % given radioactivity (PC-3+ cells, 1 h) (% given radioactivity)",[6],30
same,"cell bound, % given radioactivity (T47D+ cells, 1 h) (% given radioactivity)",[6],9
"CCCC[C@@H](C(=O)N[C@@H](CC(=O)O)C(=O)N[C@@H](Cc1cccc2ccccc12)C(N)=O)N(C)C(=O)[C@H](Cc1c[nH]c2ccccc12)NC(=O)CNC(=O)[C@H](Cc1ccc(O)cc1)NC(=O)[C@H](C)NC(=O)[C@@H](CCC(=O)O)NC(=O)CN1CCN(CC(=O)O)CCN(CC(=O)O)CCN(CC(=O)O)CC1 [^111In-DOTA-MGS5, metal not drawn]",internalisation into A431-CCK2R cells,A431-CCK2R cells; after 1 h,> 40%
same,internalisation into A431-CCK2R cells,A431-CCK2R cells; after 4 h,> 80%
same,"stability in blood, intact peptide",[1],> 80%
same,tissue uptake at 4 h,"in vivo; A431-CCK2R tumour, tumour uptake, 4 h p.i.",23.5 ± 1.3 %ID/g
"C/C1=C/C(=O)N(O)CCCC(NC(=O)CCOCCOCCOCCOCCOCCC(=O)NCc2ccc(-c3nncnn3)cc2)C(=O)OCC/C(C)=C\C(=O)N(O)CCCC(NC(=O)CCOCCOCCOCCOCCOCCC(=O)NCc2ccc(-c3nncnn3)cc2)C(=O)OCC/C(C)=C\C(=O)N(O)CCCC(NC(=O)CCOCCOCCOCCOCCOCCC(=O)NCc2ccc(-c3nncnn3)cc2)C(=O)OCC1 (stereo not drawn) (68Ga complex, metal not drawn) [FSC-(PEG5Tz)3]",protein binding,[2],exceeded 50%
same,binding after binding of Rtx-TCO to CD20 expressing cells,[3],15.9 ± 0.88%
same,log p,[4],below -1
same,blood levels,[5],3 %ID/g
"C[C@@H](O)[C@H](NC(=O)[C@@H]1CSSC[C@H](NC(=O)[C@@H](Cc2ccccc2)NC(=O)CN2CCN(CC(=O)O)CCN(CC(=O)O)CCN(CC(=O)O)CC2)C(=O)N[C@@H](Cc2ccc(O)cc2)C(=O)N[C@H](Cc2c[nH]c3ccccc23)C(=O)N[C@@H](CCCCN)C(=O)N[C@@H]([C@@H](C)O)C(=O)N1)C(=O)O [177Lu-DOTATATE, metal not drawn]",hydroxylated Lutetium,[7]; [10],6.3%±1.8%
same,unbound lutetium,[7]; [10],4.8%±0.8%
same,hydroxylated Lutetium,"[7]; plasma, mean±SD n = 3-4",4.9%±1.3%
same,unbound lutetium,"[7]; plasma, mean±SD n = 3-4",4.2%±0.6%
O=C(O)CN(CCN(CC(=O)O)CC(=O)O)CCN(CC(=O)O)CC(=O)O [free DTPA],decrease of hepatic Pu level,[8],19%
same,decrease of skeletal Pu level,[8],12%
same,decrease of splenic Pu level,[8],24%
"CC(=O)NC1CCCN(O)C(=O)/C=C(/C)CCOC(=O)C(NC(=O)CCOCCOCCOCCOCCOCCC(=O)NCc2ccc(-c3nncnn3)cc2)CCCN(O)C(=O)/C=C(/C)CCOC(=O)C(NC(=O)CCOCCOCCOCCOCCOCCC(=O)NCc2ccc(-c3nncnn3)cc2)CCCN(O)C(=O)/C=C(/C)CCOC1=O (stereo not drawn) (68Ga complex, metal not drawn) [MAFC-(PEG5Tz)2]",protein binding,[2],exceeded 50%
same,binding after binding of Rtx-TCO to CD20 expressing cells,[3],7.75 ± 0.56%
same,log p,[4],below -1
